The values that follow come from ChEMBL document CHEMBL4811298, “Discovery of novel class of histone deacetylase inhibitors as potential anticancer agents” (Bioorg Med Chem, 2021).

The test system of series [1] is MCF7. The series is described as follows: Induction of cell cycle arrest in human MCF7 cells assessed as accumulation at subG1 phase at 1 uM incubated for 24 to 72 hrs by PI staining based flow cytometric analysis. Format: functional. The settings on record: time 24-72 hrs. Background: A flow cytometer gives signals particle by particle.
In series [2] the test system is MCF7. The series is described as follows: Downregulation of SIRT4 gene expression in human MCF7 cells at 3 uM incubated for 24 hrs by whole transcriptome analysis. Format: functional, cell-based.
The nature of series [3]: Half life in human liver microsomes at 1 uM measured after 60 mins in presence of NADPH by LC-MS/MS analysis. Format: ADME, Microsome. A general note: Microsomes from liver hold many membrane-bound enzymes, among them those of drug oxidation.
Series [4] is filed under the species Homo sapiens. The series is described as follows: Selectivity ratio of IC50 for inhibition of N-terminal GST-tagged/C-terminal His-tagged human recombinant HDAC4 (627 to 1084 residues) expressed in baculovirus-infected Sf9 cells to IC50 for inhibition of C-terminal 6XHis-tagged human recombinant full length HDAC2 (1 to 488 residues) expressed in baculovirus-infected Sf9 cells.

In series [5] the test system is MCF7. The series is described as follows: Downregulation of SIRT2 gene expression in human MCF7 cells at 3 uM incubated for 24 hrs by whole transcriptome analysis. Format: functional, cell-based.
The test system of series [6] is MCF7. Put plainly: Induction of cell cycle arrest in human MCF7 cells assessed downregulation of CDK2 gene expression at 3 uM incubated for 24 hrs by whole transcriptome analysis. Format: functional, cell-based.
The species named for series [7] is Homo sapiens. Put plainly: Selectivity ratio of IC50 for inhibition of C-terminal His-tagged human recombinant full length HDAC3 (1 to 428 residues)/N-terminal GST-tagged human recombinant NCOR2 (395 to 489 residues) expressed in baculovirus-infected Sf9 cells to IC50 for inhibition of C-terminal 6XHis-tagged human recombinant full length HDAC2 (1 to 488 residues) expressed in baculovirus-infected Sf9 cells.

The test system of series [8] is MCF7. The series is described as follows: Induction of cell cycle arrest in human MCF7 cells assessed downregulation of CDK4 gene expression at 3 uM incubated for 24 hrs by whole transcriptome analysis. Format: functional, cell-based.
Series [9] concerns MCF7. Put plainly: Induction of cell cycle arrest in human MCF7 cells assessed downregulation of CDK6 gene expression at 3 uM incubated for 24 hrs by whole transcriptome analysis. Format: functional, cell-based.
Series [10] in a line: Half life in CD-1 mouse liver microsomes at 1 uM measured after 60 mins in presence of NADPH by LC-MS/MS analysis. Format: ADME, Microsome.
Series [11] has as its system MCF7. Put plainly: Induction of cell cycle arrest in human MCF7 cells assessed downregulation of E2F1 gene expression at 3 uM incubated for 24 hrs by whole transcriptome analysis. The class given is functional, cell-based.
Series [12] deals with Histone deacetylase 3/Nuclear receptor corepressor 2 (HDAC3/NCoR2) (Homo sapiens, UniProt O15379). Put plainly: Inhibition of C-terminal His-tagged human recombinant full length HDAC3 (1 to 428 residues)/N-terminal GST-tagged human recombinant NCOR2 (395 to 489 residues) expressed in baculovirus-infected Sf9 cells assessed as reduction in 7-amino-4-methylcoumarin release using fluorogenic HDAC substrate 3 measured every 5 mins by fluorescence based analysis.

In series [13] the test system is MCF7. The series is described as follows: Induction of apoptosis in human MCF7 cells assessed as reduction in Bcl2 gene expression at 3 uM incubated for 24 hrs by whole transcriptome analysis. The class given is functional, cell-based.
Series [14] is filed under the species Homo sapiens. Put plainly: Selectivity ratio of IC50 for inhibition of N-terminal GST-tagged human recombinant full length HDAC5 expressed in baculovirus-infected Sf9 cells to IC50 for inhibition of C-terminal FLAG/His-tagged human recombinant HDAC1 (1 to 482 residues) expressed in baculovirus-infected Sf9 cells.
The target in a further series is Cytochrome P450 2D6 (Homo sapiens, UniProt P10635). Put plainly: Inhibition of human CYP2D6 expressed in insect supersomes assessed as reduction in AHMC formation using AMMC as substrate measured after 40 mins in presence of NADPH by fluorescence based analysis. The class given is ADME.
In the next series the target is Histone deacetylase 5 (Homo sapiens, UniProt Q9UQL6). The series is described as follows: Inhibition of N-terminal GST-tagged human recombinant full length HDAC5 expressed in baculovirus-infected Sf9 cells assessed as reduction in 7-amino-4-methylcoumarin release measured every 5 mins by fluorescence based analysis.
For a further series, the target named is Cytochrome P450 3A4 (Homo sapiens, UniProt P08684). The series is described as follows: Inhibition of human CYP3A4 expressed in insect supersomes assessed as reduction in […] formation using midazolam as substrate measured after 30 mins in presence of NADPH by LC-MS/MS analysis. Format: ADME.
Series [15] in a line: Downregulation of HDAC1 gene expression in human MCF7 cells at 3 uM incubated for 24 hrs by whole transcriptome analysis relative to control. Format: functional.
Another series addresses Histone deacetylase 9 (Homo sapiens, UniProt Q9UKV0). Put plainly: Inhibition of C-terminal His-tagged human HDAC9 (604 to 1066 residues) expressed in baculovirus-infected Sf9 cells assessed as reduction in 7-amino-4-methylcoumarin release measured every 5 mins by fluorescence based analysis.
The species named for series [16] is Homo sapiens. The series is described as follows: Selectivity ratio of IC50 for inhibition of C-terminal His-tagged human HDAC9 (604 to 1066 residues) expressed in baculovirus-infected Sf9 cells to IC50 for inhibition of C-terminal FLAG/His-tagged human recombinant HDAC1 (1 to 482 residues) expressed in baculovirus-infected Sf9 cells.
The species named for series [17] is Homo sapiens. The series is described as follows: Selectivity ratio of IC50 for inhibition of N-terminal GST-tagged human HDAC7 (518 to end residues) expressed in baculovirus-infected Sf9 cells to IC50 for inhibition of C-terminal 6XHis-tagged human recombinant full length HDAC2 (1 to 488 residues) expressed in baculovirus-infected Sf9 cells.
For series [18], the species on record is Homo sapiens. Put plainly: Selectivity ratio of IC50 for inhibition of N-terminal GST-tagged/C-terminal His-tagged human recombinant HDAC4 (627 to 1084 residues) expressed in baculovirus-infected Sf9 cells to IC50 for inhibition of C-terminal FLAG/His-tagged human recombinant HDAC1 (1 to 482 residues) expressed in baculovirus-infected Sf9 cells.
For series [19], the species on record is Homo sapiens. The series is described as follows: Selectivity ratio of IC50 for inhibition of N-terminal GST-tagged human HDAC7 (518 to end residues) expressed in baculovirus-infected Sf9 cells to IC50 for inhibition of C-terminal FLAG/His-tagged human recombinant HDAC1 (1 to 482 residues) expressed in baculovirus-infected Sf9 cells.

Calls of active or inactive are those of the source. The rule behind the calls is not given here.

Sequence of Histone deacetylase 5 (Q9UQL6 whole entry): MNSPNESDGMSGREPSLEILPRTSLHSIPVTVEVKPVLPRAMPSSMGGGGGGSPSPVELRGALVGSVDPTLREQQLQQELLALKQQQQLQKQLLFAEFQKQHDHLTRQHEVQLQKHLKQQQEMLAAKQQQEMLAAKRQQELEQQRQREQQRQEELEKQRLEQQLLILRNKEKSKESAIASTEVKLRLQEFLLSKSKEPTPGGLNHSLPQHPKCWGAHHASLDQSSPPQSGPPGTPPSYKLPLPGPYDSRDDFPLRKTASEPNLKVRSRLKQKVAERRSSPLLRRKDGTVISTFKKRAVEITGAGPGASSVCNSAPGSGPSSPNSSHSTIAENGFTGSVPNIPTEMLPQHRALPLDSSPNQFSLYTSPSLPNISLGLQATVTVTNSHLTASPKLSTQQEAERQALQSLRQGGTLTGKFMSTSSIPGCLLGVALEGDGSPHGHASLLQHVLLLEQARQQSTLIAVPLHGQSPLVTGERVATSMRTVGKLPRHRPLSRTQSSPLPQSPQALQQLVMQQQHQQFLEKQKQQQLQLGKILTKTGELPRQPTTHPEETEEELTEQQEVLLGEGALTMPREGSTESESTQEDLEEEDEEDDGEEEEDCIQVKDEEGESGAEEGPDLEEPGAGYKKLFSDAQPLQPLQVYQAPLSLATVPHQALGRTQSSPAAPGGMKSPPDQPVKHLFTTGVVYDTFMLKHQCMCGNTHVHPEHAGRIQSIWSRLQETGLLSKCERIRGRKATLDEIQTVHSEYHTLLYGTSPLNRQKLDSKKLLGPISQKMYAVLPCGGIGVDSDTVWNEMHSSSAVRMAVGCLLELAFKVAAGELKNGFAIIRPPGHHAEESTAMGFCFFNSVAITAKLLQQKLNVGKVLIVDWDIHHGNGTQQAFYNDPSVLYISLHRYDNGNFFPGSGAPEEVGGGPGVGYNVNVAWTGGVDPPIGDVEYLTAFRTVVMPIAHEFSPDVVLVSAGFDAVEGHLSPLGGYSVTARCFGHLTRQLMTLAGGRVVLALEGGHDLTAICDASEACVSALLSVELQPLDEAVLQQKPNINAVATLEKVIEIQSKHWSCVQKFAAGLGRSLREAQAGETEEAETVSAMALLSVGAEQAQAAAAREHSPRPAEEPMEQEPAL
Sequence of Cytochrome P450 2D6 (P10635 whole entry): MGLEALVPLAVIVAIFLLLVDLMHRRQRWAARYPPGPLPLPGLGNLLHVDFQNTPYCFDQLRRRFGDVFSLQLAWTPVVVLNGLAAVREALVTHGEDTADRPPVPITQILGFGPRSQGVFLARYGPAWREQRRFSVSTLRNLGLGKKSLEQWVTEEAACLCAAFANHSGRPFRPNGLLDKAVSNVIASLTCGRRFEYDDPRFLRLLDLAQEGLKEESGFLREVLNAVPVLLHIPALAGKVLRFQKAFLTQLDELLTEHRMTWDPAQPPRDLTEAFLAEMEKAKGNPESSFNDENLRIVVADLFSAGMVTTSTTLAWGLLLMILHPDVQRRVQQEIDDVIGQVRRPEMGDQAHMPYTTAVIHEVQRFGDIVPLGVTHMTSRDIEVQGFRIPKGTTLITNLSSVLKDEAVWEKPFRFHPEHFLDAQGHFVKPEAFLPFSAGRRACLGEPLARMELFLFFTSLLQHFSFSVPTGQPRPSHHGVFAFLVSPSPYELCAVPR
Sequence of Cytochrome P450 3A4 (P08684 whole entry): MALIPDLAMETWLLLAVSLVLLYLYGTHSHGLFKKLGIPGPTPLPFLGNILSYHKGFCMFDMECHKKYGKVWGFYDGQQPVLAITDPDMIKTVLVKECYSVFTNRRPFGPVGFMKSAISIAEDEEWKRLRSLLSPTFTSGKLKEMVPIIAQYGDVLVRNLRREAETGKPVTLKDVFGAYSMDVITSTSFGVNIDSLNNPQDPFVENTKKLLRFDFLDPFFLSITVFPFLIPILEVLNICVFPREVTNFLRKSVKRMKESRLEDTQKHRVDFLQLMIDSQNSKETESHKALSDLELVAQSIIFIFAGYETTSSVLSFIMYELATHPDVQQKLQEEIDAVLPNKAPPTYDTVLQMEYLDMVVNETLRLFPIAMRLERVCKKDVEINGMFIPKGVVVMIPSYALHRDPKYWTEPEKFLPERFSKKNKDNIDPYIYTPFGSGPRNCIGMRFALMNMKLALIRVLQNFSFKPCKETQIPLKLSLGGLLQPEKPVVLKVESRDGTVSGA
Sequence of Histone deacetylase 9 (Q9UKV0 whole entry, the tested form may be a part): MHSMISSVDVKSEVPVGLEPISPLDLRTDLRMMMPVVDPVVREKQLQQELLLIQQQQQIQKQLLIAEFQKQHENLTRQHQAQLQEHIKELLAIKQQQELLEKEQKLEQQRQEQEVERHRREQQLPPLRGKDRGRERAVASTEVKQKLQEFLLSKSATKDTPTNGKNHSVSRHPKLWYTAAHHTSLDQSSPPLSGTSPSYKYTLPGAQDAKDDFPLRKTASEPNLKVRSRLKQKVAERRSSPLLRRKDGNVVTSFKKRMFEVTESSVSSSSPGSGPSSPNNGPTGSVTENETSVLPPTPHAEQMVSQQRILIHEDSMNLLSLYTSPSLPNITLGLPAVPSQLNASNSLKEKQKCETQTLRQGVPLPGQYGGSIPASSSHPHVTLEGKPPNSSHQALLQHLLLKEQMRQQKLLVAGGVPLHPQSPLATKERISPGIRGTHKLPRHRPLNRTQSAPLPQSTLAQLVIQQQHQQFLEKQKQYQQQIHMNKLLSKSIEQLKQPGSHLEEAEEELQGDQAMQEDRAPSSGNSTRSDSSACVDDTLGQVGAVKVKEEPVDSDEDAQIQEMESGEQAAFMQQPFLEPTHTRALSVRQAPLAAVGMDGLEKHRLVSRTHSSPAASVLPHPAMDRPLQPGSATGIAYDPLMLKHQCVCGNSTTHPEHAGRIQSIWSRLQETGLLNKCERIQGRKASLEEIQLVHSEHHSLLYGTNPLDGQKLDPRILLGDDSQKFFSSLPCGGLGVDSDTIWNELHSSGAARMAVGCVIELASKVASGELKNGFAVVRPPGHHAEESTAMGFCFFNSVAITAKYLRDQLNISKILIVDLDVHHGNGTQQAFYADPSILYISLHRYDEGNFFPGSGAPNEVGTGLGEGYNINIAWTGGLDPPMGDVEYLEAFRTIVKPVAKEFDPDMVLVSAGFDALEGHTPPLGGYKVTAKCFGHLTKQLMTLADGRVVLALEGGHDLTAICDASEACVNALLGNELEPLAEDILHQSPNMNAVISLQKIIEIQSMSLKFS

For `N=C(NO)c1ccc2nc(-c3cccc(-c4cn5ccccc5n4)c3)[nH]c2c1`, the result in the series with MCF7 [1], in the series on MCF7 [6], in the series with MCF7 [8], in the series with MCF7 [9], in the series with MCF7 [11] and in the series on MCF7 [13] was Active. The inhibition entry with MCF7 [2] and in the series with MCF7 [5] was “Active” in each case. The half-life (commonly how long it takes for the measured level to halve) at 1 µM was found to be 7.1 min in series [3] and 17.6 min in series [10]. The Ratio IC50 in the series filed under Homo sapiens [4], in the series filed under Homo sapiens [7], in the series listed under Homo sapiens [14], in the series filed under Homo sapiens [16], in the series listed under Homo sapiens [17] and in the series filed under Homo sapiens [18] was more than 44 in each case. In the series filed under Homo sapiens [19], the Ratio IC50 was more than 44. For the same compound, the 50% inhibitory concentration (IC50) (usually the midpoint of a concentration-inhibition curve) in series [12] is more than 10 µM; at Cytochrome P450 2D6 it was more than 10 µM; at Histone deacetylase 5, more than 10 µM; at Cytochrome P450 3A4, 0.233 µM; on Histone deacetylase 9 it was more than 10 µM. Also, in series [15], the “fold change (FC)” value came to 3.2.
